Data: patent US7241581B2, “Methods of identifying compounds that modulate IL-4 receptor-mediated IgE synthesis utilizing a c-MYC protein” (Rigel Pharmaceuticals, Inc., priority 2002, dated 2007)
Several values for one entry are separate records, joined by “and”; a condition that tells them apart may be missing. Equal values may be shown once.

How the values were obtained:
germline ε promoter = test: Functional profile of BR10A1 wt and mutants in the A5T4 reporter cell line; format: cell-based, human; details: for Reporter Ratio: A5T4 reporter line; for functional category as compared to the activity of the wild type peptide: based on reporter ratio, % change calculated after subtracting 1.0 from the ratios
Protocol: Following infection, the library was enriched for cells expressing peptides that inhibit IL-4 induced ε transcription as generally outlined in the top half of FIG. 3 and sorted by FACS into single cell clones. The clones were then screened as generally illustrated in the lower half of FIG. 3. Briefly, for screening, each clone was divided into two populations and one population was treated with Dox (10 ng/ml). After 5 days, both populations were stimulated with IL-4 (final conc. 60 U/mL; PeptroTech, Inc.) and, after 3 more days, both populations were analyzed by FACS to measure BFP and GFP fluorescence. FACS data were converted to a “reporter ratio”, which is defined for this purpose as the ratio of the geometric mean of GFP fluorescence of the +IL-4/+Dox to the +IL-4/−Dox populations. Cells expressing a peptide that inhibits germline ε transcription have a reporter ratio of ≧1.1. A reporter ratio of ≧1.2 is indicative of strong inhibition.
The ability of peptide BR10A1 wt to inhibit germline ε transcription was confirmed in naive cells. Briefly, Phoenix cells were transfected with a retroviral vector encoding a BFP-BR10A1 wt peptide fusion as described in WO 99/58663 and WO 97/27213. Naïve A5T4 cells were infected with the resultant virions and grown for 3 days. The infected cells were stimulated with IL-4 (60 U/mL) and, after 3 days, the cells were assessed by FACS for BFP and GFP. […] The BFP fluorescence data corresponding to the BFP^+ and BFP^− populations are provided in Panel A. The GFP fluorescence data corresponding to the BFP^+ and BFP^− populations are presented in Panel B. The reporter ratio for this purpose is determined as the geometric mean of the GFP fluorescence of the BFP^− population divided by the geometric mean of the GFP fluorescence of the BFP^+ population. The reporter ratio for the BR10A1 in this re-infection assay was 1.27.
A collection of BR10A1 mutants was generated by replacing single or double amino acid residues in the sequence of BR10A1 wt with a different amino acid, typically an alanine or glycine, as described in copending application Ser. No.10/095,659, entitled Methods of Identifying Protein Targets, filed Mar. 8, 2002 . The functional profiles for the mutants derived from BR10A1 wt was obtained by constructing and screening for activity in the A5T4 reporter cell line in the manner described above. The activity of each mutant at the germline ε promoter is reflected in the reporter ratio as described above. The reporter ratios were the functional values that were used to develop the functional profiles. Measurement of the reporter ratios of the mutant peptides was carried out in a number of separate experiments, each time comparing the value of cells transfected with mutant peptide to that of cells transfected with control WT peptide done at the same time. The reporter ratios of the control WT peptide can vary depending upon a number of factors including the infectivity or the state of the infected cells at the time of infection.
TABLE 2 depicts the amino acid sequences (the dual alanine mutations are underlined) of the mutants tested and the measured reporter ratios when screening in the A5T4 reporter line.
Comparison of the interaction and functional profiles was performed by categorizing the mutants of BR10A1 based on the functional and interaction assays. Based on the reporter ratio, each mutant was categorized into one of four functional categories: (1) reduction of function (ROF); (2) loss of function (LOF); (3) increase of function (IOF) or (4) functionally neutral (N) as compared to the activity of the wild type peptide, here BR10A1 wt. As mentioned previously, cells expressing a peptide that inhibits germline ε transcription have reporter ratios of ≧1.1. Cells expressing a loss of function (LOF) mutant have a reporter ratio of <1.11. […] Functionally neutral mutants have reporter ratios that fall within ±50% of that of the BR10A1 wt peptide. […]

human c-Myc protein = target: T1, human c-Myc protein (Homo sapiens, UniProt P01106); test: Yeast two hybrid (YTH) interaction assay, β-galactosidase; format: binding
T1 construct: expressed in transfected cells; prey cDNA library made from the A5T4 reporter line (human BJAB B-cells)
Protocol: Potential binding partners for peptide BR10A1 wt were identified in a β-galactosidase yeast two-hybrid (YTH) assay using peptide BR10A1 wt as bait and a cDNA library constructed from the A5T4 reporter cell line as prey. Binding was assessed by β-galactosidase quantification using BetaFluor (Novagen) as a substrate. A negative interaction control (no cDNA fused downstream of the GAL4 activation domain sequence) was also run. A general outline of the YTH assay is illustrated in FIG. 5A. Following clustering, filtering to remove non-specific bait hits (e.g., GFP and BFP), singletons and clusters recognized by 10 or more cDNA baits (based upon historical YTH assays), and prioritization, 30 prey clones were identified as hits.
Potential targets identified in the YTH assay were reconfirmed as generally outlined in FIG. 6. The cDNA clones identified as hits in the YTH assay were purified and rescreened for interaction with the BR10A1 wt peptide in a YTH assay. The hit clones were also screened in a control assay for interaction with the BFP using a vector (pGBKT7) that contained only the BFP and not the BR10A1 peptide. At this stage, 25 putative target clones remained.
The interaction of BR10A1 wt peptide and its mutants with the clones identified as potential targets for the peptide BR10A1 wt was then quantified in a β-galactosidase YTH assay. The YTH assay was performed in the manner described above. A general outline of this YTH assay is illustrated in FIG. 5B. For each clone tested, an interaction profile was developed by comparing the β-galactosidase activity of each mutant to that of the wild type peptide as described above.
The interaction of selected IOF, ROF and LOF mutants with different polypeptides encoded by the putative target clones were quantified using the YTH assay described above. Based on the YTH assay, for each putative target, the mutants were categorized into the following four interaction categories: (1) reduction of interaction (ROI); (2) loss of interaction (LOI); (3) increase of interaction (IOI); and (4) interactionally neutral (N), by assessing the binding affinity ratio of the mutant peptide and the wild type peptide (β-gal activity of mutant/wild type) to the putative target. The selection criteria for categorizing the interactions is shown on FIG. 8.

[1] = second value column (separate experiment with its own WT control)
[2] = separate experiment with its own WT control

T1 sequence (P01106 whole entry): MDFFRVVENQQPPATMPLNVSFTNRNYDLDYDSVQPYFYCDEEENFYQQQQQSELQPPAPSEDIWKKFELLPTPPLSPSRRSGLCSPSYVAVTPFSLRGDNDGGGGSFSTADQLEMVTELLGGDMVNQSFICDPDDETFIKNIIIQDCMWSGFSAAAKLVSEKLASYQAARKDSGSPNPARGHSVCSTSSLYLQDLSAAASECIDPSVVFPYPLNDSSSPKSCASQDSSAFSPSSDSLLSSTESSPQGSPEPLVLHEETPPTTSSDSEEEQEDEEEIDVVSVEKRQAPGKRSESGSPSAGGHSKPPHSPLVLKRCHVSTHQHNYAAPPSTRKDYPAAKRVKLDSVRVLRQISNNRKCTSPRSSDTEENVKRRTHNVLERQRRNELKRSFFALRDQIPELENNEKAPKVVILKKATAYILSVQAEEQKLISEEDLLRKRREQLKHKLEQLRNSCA

binding to human c-Myc protein in yeast two hybrid interaction assay (human c-Myc protein)	Sequence	Reporter Ratio (germline ε promoter; [1])	Reporter Ratio (germline ε promoter; [2])	other results
	MQRRESCITRSVEEAAGLFYLGP (peptide encoded by random oligo-BR10A1GW) [dual alanine mutant of BR10A1 wt]	1.23		
found to bind	MQRRESCIAASVEEGWGLFYLGP (peptide encoded by random oligo-BR10A1TR) [dual alanine mutant of BR10A1 wt]	1.62		functional category as compared to the activity of the wild type peptide (germline ε promoter): IOF (An increase of function mutant (IOF) shows a >50% increase in reporter ratio)
found to bind	MQRRESAATRSVEEGWGLFYLGP (peptide encoded by random oligo-BR10A1CI) [dual alanine mutant of BR10A1 wt]	1.16		functional category as compared to the activity of the wild type peptide (germline ε promoter): ROF (a reduction of function (ROF) of mutant shows a >50% decrease in reporter ratio)
	AARRESCITRSVEEGWGLFYLGP (peptide encoded by random oligo-BR10A1MQ) [dual alanine mutant of BR10A1 wt]		1.57	
found to bind	MQRRESCITRSVEEGWAAFYLGP (peptide encoded by random oligo-BR10A1GL) [dual alanine mutant of BR10A1 wt]	1.44		
	MQRRESCITRSVEEGWGLFY (peptide encoded by random oligo-BR10A1STOP) [C-terminally truncated form of BR10A1 wt]		1.34	
	MQRRESCITRSVAAGWGLFYLGP (peptide encoded by random oligo-BR10A1EE) [dual alanine mutant of BR10A1 wt]	1.39		
	MQRRESAATRSVEEAAGLFYLGP (peptide encoded by random oligo-BR10A1CIGW) [mutant of BR10A1 wt with alanines at CI and GW]			Reporter Ratio (germline ε promoter; fourth value column (separate experiment with its own WT control)): 1.08 and 1.15; functional category as compared to the activity of the wild type peptide (germline ε promoter): LOF/ROF
	MQRRESCITRSVEEGWGLAALGP (peptide encoded by random oligo-BR10A1FY) [dual alanine mutant of BR10A1 wt]		1.34	
	MQAAESCITRSVEEGWGLFYLGP (peptide encoded by random oligo-BR10A1RR) [dual alanine mutant of BR10A1 wt]			Reporter Ratio (germline ε promoter; first value column (separate experiment with its own WT control)): 1.32
found to bind	MQRRAACITRSVEEGWGLFYLGP (peptide encoded by random oligo-BR10A1ES) [dual alanine mutant of BR10A1 wt]		1.50	
